Our source for the IC50 values is US11999715B2, “ASK1 inhibiting agents” (BIOGEN MA INC., priority 2018, dated 2024).

A value given as a limit tells only on which side of the number the result lay.

In assay [1] the target is T1, ASK1/MAP3K5 (Homo sapiens, UniProt Q99683).
T1 sequence (Q99683 1-1374): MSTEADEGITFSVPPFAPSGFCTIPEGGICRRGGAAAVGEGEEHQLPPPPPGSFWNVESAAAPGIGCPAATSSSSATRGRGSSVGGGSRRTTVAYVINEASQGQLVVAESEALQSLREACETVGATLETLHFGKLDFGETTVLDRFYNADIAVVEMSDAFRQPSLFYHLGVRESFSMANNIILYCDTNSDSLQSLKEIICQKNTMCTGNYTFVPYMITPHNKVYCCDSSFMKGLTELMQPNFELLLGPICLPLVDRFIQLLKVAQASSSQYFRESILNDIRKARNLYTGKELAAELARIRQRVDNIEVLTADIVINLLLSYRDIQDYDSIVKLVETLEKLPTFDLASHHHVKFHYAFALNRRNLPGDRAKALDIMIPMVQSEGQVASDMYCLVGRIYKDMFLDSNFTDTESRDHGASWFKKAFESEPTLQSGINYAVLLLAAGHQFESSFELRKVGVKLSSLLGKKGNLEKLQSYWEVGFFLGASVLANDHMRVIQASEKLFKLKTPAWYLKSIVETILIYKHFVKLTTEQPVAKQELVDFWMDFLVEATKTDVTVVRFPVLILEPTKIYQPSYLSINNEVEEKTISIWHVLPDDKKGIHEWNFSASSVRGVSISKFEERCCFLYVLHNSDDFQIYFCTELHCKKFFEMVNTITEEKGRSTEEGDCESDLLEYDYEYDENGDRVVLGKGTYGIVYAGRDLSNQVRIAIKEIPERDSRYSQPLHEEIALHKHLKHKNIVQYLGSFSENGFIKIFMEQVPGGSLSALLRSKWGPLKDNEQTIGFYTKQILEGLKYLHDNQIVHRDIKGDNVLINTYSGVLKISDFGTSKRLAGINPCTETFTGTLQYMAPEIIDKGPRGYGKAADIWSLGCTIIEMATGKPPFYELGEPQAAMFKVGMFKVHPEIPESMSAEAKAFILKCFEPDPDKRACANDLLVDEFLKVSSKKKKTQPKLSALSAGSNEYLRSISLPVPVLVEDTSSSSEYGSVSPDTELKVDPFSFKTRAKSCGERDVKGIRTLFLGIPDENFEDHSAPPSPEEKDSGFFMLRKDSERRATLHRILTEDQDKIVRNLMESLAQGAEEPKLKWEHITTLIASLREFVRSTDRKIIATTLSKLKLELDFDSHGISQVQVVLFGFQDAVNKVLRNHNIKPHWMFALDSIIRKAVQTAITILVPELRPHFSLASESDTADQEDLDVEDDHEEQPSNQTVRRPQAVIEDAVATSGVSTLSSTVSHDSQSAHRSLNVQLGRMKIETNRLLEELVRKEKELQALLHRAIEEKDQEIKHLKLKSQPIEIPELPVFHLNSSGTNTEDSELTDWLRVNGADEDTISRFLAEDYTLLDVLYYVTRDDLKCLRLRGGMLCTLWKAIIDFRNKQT
Put plainly: ASK1/MAP3K5 kinase assay by Reaction Biology Corp. (headed ASK1 TR-FRET Assay). Format: biochemical. Particulars: 20 μM myelin basic protein, 10 μM ATP, class symbols. The method, then: Example 111: Brief Description of ASK1 TR-FRET Assay The protein kinase inhibitory activity of the compounds described herein were tested using the ASK1/MAP3K5 assay by Reaction Biology Corp. (Malvern, PA). The assay procedure follows (and is also available on the Reaction Biology Corp. website). Base Reaction Buffer: 20 mM Hepes (pH 7.5), 10 mM MgCl2, 1 mM EGTA, 0.02% Brij35, 0.02 mg/mL BSA, 0.1 mM Na3VO4, 2 mM DTT, 1% DMSO; Substrate: 20 μM of myelin basic protein (MBP) and 10 μM ATP; Protein kinase: ASK1/MAP3K5. Reaction Procedure: • 1. Prepare indicated substrate in freshly prepared Base Reaction Buffer. • 2. Deliver any required cofactors to the substrate solution. • 3. Deliver indicated kinase into the substrate solution and gently mix. • 4. Deliver compounds in DMSO into the kinase reaction mixture by Acoustic; technology (Echo550; nanoliter range), incubate for 20 minutes at room temperature. • 5. Deliver ^33P-ATP (specific activity 10 μCi/μL) into the reaction mixture to initiate the reaction. • 6. Incubate kinase reaction for 2 hours at room temperature. • 7. Reactions are spotted onto P81 ion exchange paper. • 8. Detect kinase activity by filter-binding method.
On the technique in general: TR-FRET usually uses a lanthanide donor and a delayed reading to cut background.

Assay [2] deals with T2, ASK1 T838 auto phosphorylation (Homo sapiens, UniProt Q99683).
T2 sequence (Q99683 1-1374): T1 sequence (Q99683 1-1374)
Put plainly: ASK1 (AUTO PHOS T838) assay, MSD format, in HEK-293T cells transfected with ASK1-V5. Format: cell-based. To be noted: ASK1 T838 auto phosphorylation in HEK-293T cells, 1 hr compound incubation; class symbols. The protocol:
Example 112: Brief Description of ASK1(AUTO PHOS T838) Assay ASK1 T838 auto phosphorylation was measured in HEK-293T cells using MSD assay format. HEK 293T cells were seeded in 15 cm plates at a density of 18 million cells and 20 mL DMEM with 10% FBS, Pen/Strep media. The plates were incubated at 37° C. overnight. Media on plates was changed to OPTI-MEM, serum free media and cells were transfected with 9 μg of ASK1-V5 tagged full length plasmid using Lipofectamine 2000 (Invitrogen) and the plates were incubated at 37° C. overnight. Cells were trypsinized, counted on Nexcellometer and plated into 96 well tissue culture plates with 100,000 cells/well and 200 μL media. Cells were incubated for 4 hr at 37° C. then ASK1 compounds were added using a HP 300e. Compounds were tested at 20 μM with 3 fold, 10 point dilution points then incubated for 1 hr at 37° C. A lysis buffer (Cell Signaling) was prepared with protease and phosphatase inhibitor and maintained at 4° C. until use. Media from cells was discarded and 120 μL of cold lysis buffer was added to the cells, the plate was shaken 4° C. for 1 hr. Lysate was mixed using Apricot liquid handler; aspirating up and down 16 times at high speed using 50 μL volume. […] Plates were then incubated on a plate shaker overnight at 4° C. Plates were washed 3× with MSD wash buffer and 50 μL of rabbit anti-pASK1 T838 antibody was added to the wells and incubated for 2 hr at room temperature on a plate shaker. Plates were then washed and 50 μL of goat anti-rabbit sulfa-tag (1:500 dilution) was added to wells, and incubated for 1 hr at room temperature on a plate shaker. […] Plates were immediately read on a MSD Instrument Reader where chemoluminescence signal was measured. Data was analyzed using Graph Pad or Genedata, the data was normalized and plotted, % activity versus log of compound concentration. The IC50 values were obtained from a 4 parameter fit. The compounds described herein were tested for in the above cell-based assay.

Regarding `COc1nn(-c2cncc(OC(C)C)c2)cc1C(=O)Nc1cccc(-c2nncn2C(C)C)n1` [Example 72, 1-(5-Isopropoxypyridin-3-yl)-N-(6-(4-isopropyl-4H-1,2,4-triazol-3-yl)pyridin-2-yl)-3-methoxy-1H-pyrazole-4-carboxamide], the figures for the IC50 in assay [1] and in assay [2] were at most 0.1 µM and at most 1 µM, respectively.
With `COc1nn(C)cc1C(=O)Nc1cccc(-c2nncn2C(C)C(F)(F)F)n1` (centres unmarked) [Example 10, 3-Methoxy-1-methyl-N-(6-(4-(1,1,1-trifluoropropan-2-yl)-4H-1,2,4-triazol-3-yl)pyridin-2-yl)-1H-pyrazole-4-carboxamide], the IC50 – broadly, the concentration that gives 50% inhibition – in assay [2] was at most 1 µM.
`COc1nn(CC2CC2)cc1C(=O)Nc1cccc(-c2cncn2C(C)C)n1` [Example 91, 1-(Cyclopropylmethyl)-N-(6-(1-isopropyl-1H-imidazol-5-yl)pyridin-2-yl)-3-methoxy-1H-pyrazole-4-carboxamide] had an IC50 in assay [2] of at most 1 µM.
`COc1nn(C)cc1C(=O)Nc1cccc(-c2nncn2C(C)C(F)F)n1` (centres unmarked) [Example 26, N-(6-(4-(1,1-Difluoropropan-2-yl)-4H-1,2,4-triazol-3-yl)pyridin-2-yl)-3-methoxy-1-methyl-1H-pyrazole-4-carboxamide]: the IC50 in assay [1] is at most 0.1 µM; in assay [2] it was at most 1 µM.
The like results for `COc1nn(C)cc1C(=O)Nc1cccc(-c2nncn2C2CCCC2)n1` [Example 20, N-(6-(4-Cyclopentyl-4H-1,2,4-triazol-3-yl)pyridin-2-yl)-3-methoxy-1-methyl-1H-pyrazole-4-carboxamide] were, in that order, at most 0.1 µM and at most 1 µM.
On the same counts, the results for `COCCn1cc(C(=O)Nc2cccc(-c3nncn3[C@@H](C)C(F)(F)F)n2)c(OC)n1` [Example 52, (S)-3-Methoxy-1-(2-methoxyethyl)-N-(6-(4-(1,1,1-trifluoropropan-2-yl)-4H-1,2,4-triazol-3-yl)pyridin-2-yl)-1H-pyrazole-4-carboxamide] are at most 0.1 µM and at most 1 µM.
On the same counts, the results for `C[C@H](n1cnnc1-c1cccc(NC(=O)c2cn(-c3cnccn3)nc2C(F)F)n1)C(F)(F)F` [Example 89, (S)-3-(Difluoromethyl)-1-(pyrazin-2-yl)-N-(6-(4-(1,1,1-trifluoropropan-2-yl)-4H-1,2,4-triazol-3-yl)pyridin-2-yl)-1H-pyrazole-4-carboxamide] are at most 0.1 µM and at most 1 µM.
As for `COc1nn(C)cc1C(=O)Nc1cccc(-c2nncn2[C@@H]2CCOC2)n1` (single isomer, unassigned) [Example 109], the values for the IC50 in assay [1] and in assay [2] were at most 0.1 µM and at most 1 µM, respectively.
Turning to `COc1nn(C)cc1C(=O)Nc1cccc(-c2nncn2[C@H]2CCOC2)n1` (single isomer, unassigned) [Example 110], the figures for the IC50 in assay [1] and in assay [2] were at most 0.1 µM and at most 1 µM, respectively.
The like results for `CCCn1cc(C(=O)Nc2cccc(-c3nncn3C(C)C(F)(F)F)n2)c(OC)n1` (centres unmarked) [Example 59, 3-Methoxy-1-propyl-N-(6-(4-(1,1,1-trifluoropropan-2-yl)-4H-1,2,4-triazol-3-yl)pyridin-2-yl)-1H-pyrazole-4-carboxamide] were, in that order, at most 0.1 µM and at most 1 µM.
Take `COc1nn(-c2cccnn2)cc1C(=O)Nc1cccc(-c2nncn2[C@@H](C)C(F)(F)F)n1` [Example 85, (S)-3-Methoxy-1-(pyridazin-3-yl)-N-(6-(4-(1,1,1-trifluoropropan-2-yl)-4H-1,2,4-triazol-3-yl)pyridin-2-yl)-1H-pyrazole-4-carboxamide]: the IC50 is at most 0.1 µM in assay [1] and at most 1 µM in assay [2].
`COc1nn(C)cc1C(=O)Nc1cccc(-c2nncn2C(C)CO)n1` (racemic) [Example 35, rac-N-(6-(4-(1-Hydroxypropan-2-yl)-4H-1,2,4-triazol-3-yl)pyridin-2-yl)-3-methoxy-1-methyl-1H-pyrazole-4-carboxamide]: the results for the IC50 in assay [1] and in assay [2] were at most 0.1 µM and 1 to 10 µM, respectively.
As for `COc1nn(Cc2ccccn2)cc1C(=O)Nc1cccc(-c2nncn2C(C)C)n1` [Example 44, N-(6-(4-Isopropyl-4H-1,2,4-triazol-3-yl)pyridin-2-yl)-3-methoxy-1-(pyridin-2-ylmethyl)-1H-pyrazole-4-carboxamide], the half-inhibitory concentration (IC50) in assay [1] was at most 0.1 µM; in assay [2], at most 1 µM.
The like results for `COc1nn(C)cc1C(=O)Nc1cccc(-c2nncn2[C@@H](C)CO)n1` (single isomer, unassigned) [Example 37] were, in that order, at most 0.1 µM and 1 to 10 µM.
On the same counts, the results for `COc1nn(C)cc1C(=O)Nc1cccc(-c2nncn2C2CCOCC2)n1` [Example 108, 3-Methoxy-1-methyl-N-(6-(4-(tetrahydro-2H-pyran-4-yl)-4H-1,2,4-triazol-3-yl)pyridin-2-yl)-1H-pyrazole-4-carboxamide] are 0.1 to 1 µM and 1 to 10 µM.
The like results for `CC(C)Oc1cncc(-n2cc(C(=O)Nc3cccc(-c4nncn4C(C)C)n3)c(C(F)F)n2)c1` [Example 81, 3-(Difluoromethyl)-1-(5-isopropoxypyridin-3-yl)-N-(6-(4-isopropyl-4H-1,2,4-triazol-3-yl)pyridin-2-yl)-1H-pyrazole-4-carboxamide] were, in that order, at most 0.1 µM and at most 1 µM.
As to `CCCn1cc(C(=O)Nc2cccc(-c3nncn3C(C)C)n2)c(OC)n1` [Example 58, N-(6-(4-Isopropyl-4H-1,2,4-triazol-3-yl)pyridin-2-yl)-3-methoxy-1-propyl-1H-pyrazole-4-carboxamide], the IC50 in assay [2] is at most 1 µM.
In assay [2], `COc1nn(-c2ccccc2)cc1C(=O)Nc1cccc(-c2nncn2C(C)C)n1` [Example 60, N-(6-(4-Isopropyl-4H-1,2,4-triazol-3-yl)pyridin-2-yl)-3-methoxy-1-phenyl-1H-pyrazole-4-carboxamide] came in with an IC50 of at most 1 µM.
